Measured values published in patent publication US7763615B2, “Ecteinascidin analogs for use as antitumour agents” (priority 2001, dated 2010).
Values after ≈ are worked out from the molar mass of the structure shown.

Key:
H-MEC-1 = experiment: Inhibition of cells growth by colorimetric assay (SRB), H-MEC-1; assay type: cell-based; conditions: Homo sapiens, HMEC-1, 48 h
How it was run: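 For 48 hours, cells seeded at 5×10^3 per well were kept in contact with samples spanning 10 to 10^−8 μg/ml after an 18-hour attachment period. Viable biomass was then estimated colorimetrically with sulphorhodamine B at 490 nm.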

[1] = test system: NRK-52E, normal rat kidney cells; conditions: 24 h
[2] = test system: AML-12, normal mouse liver cells; conditions: 24 h
Procedure: In order to assess the cytotoxicity of the drugs to normal cells, we used 96 well plates plated at a density of 5000 cells per well (except for the FDC-P1 which were plated at 12,000 cells per well) with normal cell lines (ATCC, Table 1) maintained as per the directions of the ATCC: AML-12, normal mouse liver cells; NRK-52E, normal rat kidney cells; L8, normal rat skeletal muscle cells; FDC-P1, normal mouse myelogeous stem cells; and H9c2 (2-1), normal rat cardiac muscle cells. The cells in each plate were permitted to settle overnight before adding the test drug.
To each well (100 μl medium) 10 μl of drug in media was added at varying concentrations (1×10-10-0.01 mg/ml final concentration) and further incubated overnight at 37° C. with 5% CO2. After 24 h the following assays were performed. All experiments were repeated at least 3 times and were assayed in duplicate.
MTS assay (CellTiter 96 aqueous) was performed according to the manufacturer's (Promega) directions (for all cell types). Cell viability (mitochondrial activity) is determined via enzymatic conversion of the formazan substrate.

physchem [3] = conditions: pH 7.4, aqueous buffer, Solubility Dulbecco's PBS pH 7.4
[4] = test system: H9c2 (2-1), normal rat cardiac muscle cells; conditions: 24 h
CYP3A4 = CYP3A4 (Homo sapiens, UniProt P08684); experiment: in vitro; conditions: CYP3A4 (% inhibition)
Sequence of CYP3A4 (P08684 whole entry): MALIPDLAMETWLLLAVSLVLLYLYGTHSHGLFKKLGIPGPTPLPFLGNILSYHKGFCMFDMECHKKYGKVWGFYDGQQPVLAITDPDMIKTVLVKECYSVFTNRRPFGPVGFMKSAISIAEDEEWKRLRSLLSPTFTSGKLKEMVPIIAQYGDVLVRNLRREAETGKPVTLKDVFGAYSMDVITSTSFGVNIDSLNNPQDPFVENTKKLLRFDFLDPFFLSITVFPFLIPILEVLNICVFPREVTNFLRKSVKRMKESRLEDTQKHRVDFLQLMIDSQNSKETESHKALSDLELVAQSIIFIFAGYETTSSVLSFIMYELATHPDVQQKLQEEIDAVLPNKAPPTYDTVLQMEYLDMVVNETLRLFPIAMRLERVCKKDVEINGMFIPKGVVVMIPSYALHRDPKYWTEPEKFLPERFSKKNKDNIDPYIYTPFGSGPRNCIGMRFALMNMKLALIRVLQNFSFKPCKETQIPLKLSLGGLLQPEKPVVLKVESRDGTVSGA

(HEPG2) = conditions: human, 24 h, 30 μM
Procedure: The toxic potential of compounds was investigated in vitro using primary human hepatocytes (HEPG2). The compounds were tested at 30 μM in duplicate with a final DMSO concentration of 1%. After incubation during 24 h at 37° C. the cell viability was determined by the conversion of oxided alarmarBlue (resazurin) to reduced alarmarBlue (resorufin). Chlorpromazine was used as reference compound. Results are expressed as a percent of inhibition of control values.

physchem [5] = conditions: pH 7.4, log D n-Octanol-Dulbecco's PBS pH 7.4
LOVO-DOX = experiment: cells; assay type: cell-based; conditions: Homo sapiens, 48 h
How it was run: (§1)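 SRB colorimetric read-out (490 nm) after TCA fixation gave GI, TGI and LC values from triplicate wells. Before that, cells (5×10^3/well, RPMI 1640 with 10% FBS, 37 °C, 5% CO2) grew drug-free 18 h and were then continuously exposed 48 h to 10–10^−8 μg/ml compound.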

MEL-28 = experiment: cells; assay type: cell-based; conditions: Homo sapiens, SK-MEL-28, 48 h
How it was run: as §1

IGROV-ET = experiment: cells; assay type: cell-based; conditions: Homo sapiens, 48 h
How it was run: as §1

LOVO = experiment: cells; assay type: cell-based; conditions: Homo sapiens, LoVo, 48 h
How it was run: as §1

DU145 = experiment: cells; assay type: cell-based; conditions: Homo sapiens, DU-145, 48 h
How it was run: as §1

LNCAP = experiment: cells; assay type: cell-based; conditions: Homo sapiens, LNCaP, 48 h
How it was run: as §1

HT29 = experiment: cells; assay type: cell-based; conditions: Homo sapiens, HT-29, 48 h
How it was run: as §1

PANC-1 = experiment: cells; assay type: cell-based; conditions: Homo sapiens, PANC-1, 48 h
How it was run: as §1

K562 = experiment: cells; assay type: cell-based; conditions: Homo sapiens, K562, 48 h
How it was run: as §1

SK-BR3 = experiment: cells; assay type: cell-based; conditions: Homo sapiens, SK-BR-3, 48 h
How it was run: as §1

IGROV = experiment: cells; assay type: cell-based; conditions: Homo sapiens, 48 h
How it was run: as §1

A549 = experiment: cells; assay type: cell-based; conditions: Homo sapiens, A549, 48 h
How it was run: as §1

[6] = s9, 60 min, 1 μM
Procedure: The metabolic stability was determined used human liver S9 homogenate that including both microsomal and cytosolic enzyme activities. The test compound was diluted in methanol (0.625%) and acetonitrile (0.625%) at the concentration 1 μM and incubated in the human liver pool (protein=1 mg/mL) during 60 min at 37° C. Peak areas corresponding to all analytes (metabolic products) were determined by HPLC-MS/MS. Areas were recorded and ratios of peak areas of analytes to that of internal standard for each analyte were determined. The ratio of precursor compound remaining after 60 minutes and the amount remaining at time zero, expressed as percent, are reported as metabolic stability. Higher values mean higher metabolic stability.

SK-OV3 = experiment: Inhibition of cells growth by colorimetric assay (SRB), SK-OV3; assay type: cell-based
How it was run: as §1

[7] = H-MEC-1, 48 hours exposure, SRB
[8] = LOVO-DOX, 48 hours exposure, SRB
[9] = IGROV-ET, 48 hours exposure, SRB

`COc1c(C)cc2c(c1O)[C@@H]1C3[C@@H]4SC[C@]5(NCCc6c5[nH]c5c(C)cccc65)C(=O)COC[C@@H](c5c6c(c(C)c(OC(C)=O)c54)OCO6)N3[C@@H](O)[C@H](C2)N1C` (some centres unmarked) [Compound 36] showed a GI50 (H-MEC-1; [7]) of 84.3 nM, an IC (TGI) (H-MEC-1; [7]) of 783 nM and a CC50 (H-MEC-1; read-out: LC50, H-MEC-1, 48 hours exposure, SRB) of 13000 nM. It also gave a Kidney [1] of 3.56E−07, a Liver [2] of 3.19E−07 and a solubility (physchem [3]) of 26 µM (≈ 20.4 µg/mL). The Heart [4] was 8.86E−07, the inhibition at 30 min, 10 µM (CYP3A4) was 78% and the “Cell Viability (% inhibition)” value ((HEPG2)) was 33 % inhibition. The logD at 60 min (physchem [5]) was > 4.4, the GI50 (LOVO-DOX; [8]) was 70.4 nM and the IC (TGI) (LOVO-DOX; [8]) was 977 nM. The CC50 (LOVO-DOX; read-out: LC50, LOVO-DOX, 48 hours exposure, SRB) was 13000 nM, the GI50 (MEL-28; MEL-28, 48 hours exposure, SRB) was 2.16 nM and the IC (TGI) (MEL-28; MEL-28, 48 hours exposure, SRB) was 5.23 nM. It also gave a CC50 (MEL-28; read-out: LC50, MEL-28, 48 hours exposure, SRB) of 12.6 nM, a GI50 (IGROV-ET; [9]) of 50.3 nM and an IC (TGI) (IGROV-ET; [9]) of 103 nM. It also gave a CC50 (IGROV-ET; read-out: LC50, IGROV-ET, 48 hours exposure, SRB) of 130 nM, a GI50 (LOVO; 48 hours exposure, SRB) of 27.3 nM and an IC (TGI) (LOVO; 48 hours exposure, SRB) of 54.6 nM. It also gave a CC50 (LOVO; read-out: LC50, LOVO, 48 hours exposure, SRB) of 109 nM, a GI50 (DU145; DU145, 48 hours exposure, SRB) of 5.41 nM and an IC (TGI) (DU145; DU145, 48 hours exposure, SRB) of 9.39 nM. The CC50 (DU145; read-out: LC50, DU145, 48 hours exposure, SRB) was 13000 nM, the GI50 (LNCAP; 48 hours exposure, SRB) was 6.14 nM and the IC (TGI) (LNCAP; 48 hours exposure, SRB) was 9.48 nM. The CC50 (LNCAP; read-out: LC50, LNCAP, 48 hours exposure, SRB) was 25.1 nM, the GI50 (HT29; HT29, 48 hours exposure, SRB) was 61.8 nM and the IC (TGI) (HT29; HT29, 48 hours exposure, SRB) was 187 nM. The CC50 (HT29; read-out: LC50, HT29, 48 hours exposure, SRB) was 13000 nM, the GI50 (PANC-1; PANC-1, 48 hours exposure, SRB) was 42.1 nM and the IC (TGI) (PANC-1; PANC-1, 48 hours exposure, SRB) was 104 nM. For the same molecule, the CC50 (PANC-1; read-out: LC50, PANC-1, 48 hours exposure, SRB) was 13000 nM, the GI50 (K562; K562, 48 hours exposure, SRB) was 6.15 nM and the IC (TGI) (K562; K562, 48 hours exposure, SRB) was 9.92 nM. It also gave a CC50 (K562; read-out: LC50, K562, 48 hours exposure, SRB) of 109 nM, a GI50 (SK-BR3; SK-BR3, 48 hours exposure, SRB) of 11.8 nM and an IC (TGI) (SK-BR3; SK-BR3, 48 hours exposure, SRB) of 32 nM. For the same molecule, the CC50 (SK-BR3; read-out: LC50, SK-BR3, 48 hours exposure, SRB) was 86.4 nM, the GI50 (IGROV; 48 hours exposure, SRB) was 3.72 nM and the IC (TGI) (IGROV; 48 hours exposure, SRB) was 7.21 nM. It also gave a CC50 (IGROV; read-out: LC50, IGROV, 48 hours exposure, SRB) of 27.1 nM, a GI50 (A549; A549, 48 hours exposure, SRB, read-out: GI50) of 28.4 nM and an IC (TGI) (A549; A549, 48 hours exposure, SRB, read-out: TGI) of 50.7 nM. The CC50 (A549; read-out: LC50, A549, 48 hours exposure, SRB) was 90.9 nM, the “Human Liver S9 Metabolic Stability (% remaining)” value [6] was 2 % remaining and the GI50 (SK-OV3; Homo sapiens, SK-OV-3, 48 h, SK-OV3, 48 hours exposure, SRB) was 50.7 nM. For the same molecule, the CC50 (SK-OV3; Homo sapiens, SK-OV-3, 48 h, read-out: LC50, SK-OV3, 48 hours exposure, SRB) was 13000 nM and the TGI (SK-OV3; SK-OV3, 48 hours exposure, SRB) was 2.05E−07 Molar.
